Measured values published in ChEMBL document CHEMBL3734733, “Optimization of on-resin palladium-catalyzed Sonogashira cross-coupling reaction for peptides and its use in a structure-activity relationship study of a class B GPCR ligand” (Eur J Med Chem, 2015).
Calls of active or inactive are those of the source. The rule behind the calls is not given here.

What was measured:
[1] = molecular target: T1, Pituitary adenylate cyclase-activating polypeptide type I receptor (Homo sapiens, UniProt P41586); assay: Displacement of Ac-[125I]-PACAP27 from recombinant human PAC1 expressed in CHO cells after 90 mins by gamma counting analysis; assay type: cell-based
Target sequence in this assay (P41586 whole entry): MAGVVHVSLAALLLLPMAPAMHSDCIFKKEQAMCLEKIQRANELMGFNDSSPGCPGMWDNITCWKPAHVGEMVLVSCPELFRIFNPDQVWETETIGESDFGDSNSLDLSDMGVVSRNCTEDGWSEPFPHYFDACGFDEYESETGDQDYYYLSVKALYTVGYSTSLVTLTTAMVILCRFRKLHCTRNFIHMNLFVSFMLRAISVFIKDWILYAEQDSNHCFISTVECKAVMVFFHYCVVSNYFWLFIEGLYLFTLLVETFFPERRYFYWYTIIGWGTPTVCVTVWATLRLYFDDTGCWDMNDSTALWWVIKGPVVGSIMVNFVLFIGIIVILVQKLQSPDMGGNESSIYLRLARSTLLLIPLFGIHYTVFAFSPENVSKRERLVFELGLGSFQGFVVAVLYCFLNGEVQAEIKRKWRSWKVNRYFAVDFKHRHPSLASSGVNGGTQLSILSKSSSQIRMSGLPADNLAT

[2] = molecular target: T2, Vasoactive intestinal polypeptide receptor 1 (Homo sapiens, UniProt P32241); assay: Displacement of Ac-[125I]-PACAP27 from recombinant human VPAC1 expressed in CHO cells after 90 mins by gamma counting analysis; assay type: cell-based
T2 sequence (P32241 whole entry): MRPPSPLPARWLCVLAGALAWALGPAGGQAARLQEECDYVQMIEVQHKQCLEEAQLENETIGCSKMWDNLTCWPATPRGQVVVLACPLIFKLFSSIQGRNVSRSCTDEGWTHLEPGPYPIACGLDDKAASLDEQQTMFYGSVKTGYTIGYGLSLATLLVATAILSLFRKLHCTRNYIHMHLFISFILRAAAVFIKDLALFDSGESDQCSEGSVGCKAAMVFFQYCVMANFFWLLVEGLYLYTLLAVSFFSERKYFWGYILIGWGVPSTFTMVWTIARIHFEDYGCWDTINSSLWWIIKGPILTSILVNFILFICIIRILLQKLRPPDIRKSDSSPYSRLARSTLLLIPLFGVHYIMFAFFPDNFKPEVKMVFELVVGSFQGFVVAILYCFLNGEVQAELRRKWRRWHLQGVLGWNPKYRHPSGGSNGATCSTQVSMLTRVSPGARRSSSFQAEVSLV

[3] = molecular target: T3, Vasoactive intestinal polypeptide receptor 2 (Homo sapiens, UniProt P41587); assay: Displacement of Ac-[125I]-PACAP27 from recombinant human VPAC2 expressed in CHO cells after 90 mins by gamma counting analysis; assay type: cell-based
T3 sequence (P41587 whole entry): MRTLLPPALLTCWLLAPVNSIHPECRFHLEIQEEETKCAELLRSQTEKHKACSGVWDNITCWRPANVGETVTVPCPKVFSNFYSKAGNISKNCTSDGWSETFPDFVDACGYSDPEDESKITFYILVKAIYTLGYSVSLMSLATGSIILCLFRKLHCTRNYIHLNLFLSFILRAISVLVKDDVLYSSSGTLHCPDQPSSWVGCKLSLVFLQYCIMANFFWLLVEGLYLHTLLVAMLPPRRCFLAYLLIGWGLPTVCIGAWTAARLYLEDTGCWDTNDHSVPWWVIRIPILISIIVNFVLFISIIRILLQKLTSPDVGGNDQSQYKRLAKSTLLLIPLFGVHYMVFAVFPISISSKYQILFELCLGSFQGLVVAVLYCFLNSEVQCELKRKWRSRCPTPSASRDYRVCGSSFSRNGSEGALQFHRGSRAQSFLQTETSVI

SH-SY5Y = assay: Neuroprotective activity against MPP+-induced toxicity in human SH-SY5Y cells assessed as increase in cell viability at 100 nM preincubated for 4 hrs followed by incubation with MPP+ for 20 hrs measured after 24 hrs by MTS assay relative to control; assay type: functional
[4] = molecular target: T1, Pituitary adenylate cyclase-activating polypeptide type I receptor; assay: Activation of PAC1 in human SH-SY5Y cells assessed as stimulation of forskolin-induced cAMP production at 10^-7 to 10^-5 M after 30 mins; assay type: cell-based
Target sequence in this assay (P41586 21-468 limits assumed): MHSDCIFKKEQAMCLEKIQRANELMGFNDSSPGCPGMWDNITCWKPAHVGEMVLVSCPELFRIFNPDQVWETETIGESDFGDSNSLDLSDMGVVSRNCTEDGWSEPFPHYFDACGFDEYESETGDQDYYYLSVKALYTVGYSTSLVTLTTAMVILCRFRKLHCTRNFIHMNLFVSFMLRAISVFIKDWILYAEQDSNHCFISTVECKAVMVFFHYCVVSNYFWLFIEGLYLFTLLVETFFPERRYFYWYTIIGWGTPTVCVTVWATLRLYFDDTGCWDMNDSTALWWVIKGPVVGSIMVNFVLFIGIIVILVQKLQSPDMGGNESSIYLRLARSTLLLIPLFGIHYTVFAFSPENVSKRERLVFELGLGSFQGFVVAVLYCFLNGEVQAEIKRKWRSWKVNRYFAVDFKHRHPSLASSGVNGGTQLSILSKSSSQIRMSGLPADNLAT

[5] = molecular target: T4, Vasoactive intestinal polypeptide receptor 1 (Homo sapiens) (UniProt P32241); assay: Activation of VPAC1 in human SH-SY5Y cells assessed as stimulation of forskolin-induced cAMP production at 10^-7 to 10^-5 M after 30 mins; assay type: functional, cell-based
T4 sequence (whole entry): T2 sequence (P32241 whole entry)

[6] = molecular target: T5, Vasoactive intestinal polypeptide receptor 2 (Homo sapiens) (UniProt P41587); assay: Activation of VPAC2 in human SH-SY5Y cells assessed as stimulation of forskolin-induced cAMP production at 10^-7 to 10^-5 M after 30 mins; assay type: functional, cell-based
T5 sequence (whole entry): T3 sequence (P41587 whole entry)

SMILES | IC50 ([1]; read-out: IC50) | IC50 ([2]; read-out: IC50) | IC50 ([3]; read-out: IC50) | Activity (SH-SY5Y) | Activity [4] | Activity [5] | Activity [6] | IC50 ([1]; read-out: pIC50 (converted)) | IC50 ([2]; read-out: pIC50 (converted)) | IC50 ([3]; read-out: pIC50 (converted))
CC[C@H](C)[C@H](NC(=O)CNC(=O)[C@H](CC(=O)O)NC(=O)[C@H](CO)NC(=O)[C@@H](N)Cc1cnc[nH]1)C(=O)N[C@@H](Cc1ccc(C#Cc2ccc(F)cc2)cc1)C(=O)N[C@H](C(=O)N[C@@H](CC(=O)O)C(=O)N[C@@H](CO)C(=O)N[C@@H](Cc1ccc(O)cc1)C(=O)N[C@@H](CO)C(=O)N[C@@H](CCCNC(=N)N)C(=O)N[C@@H](Cc1ccc(O)cc1)C(=O)N[C@@H](CCCNC(=N)N)C(=O)N[C@@H](CCCCN)C(=O)N[C@@H](CCC(N)=O)C(=O)N[C@@H](CCSC)C(=O)N[C@@H](C)C(=O)N[C@H](C(=O)N[C@@H](CCCCN)C(=O)N[C@@H](CCCCN)C(=O)N[C@@H](Cc1ccc(O)cc1)C(=O)N[C@@H](CC(C)C)C(=O)N[C@@H](C)C(=O)N[C@@H](C)C(=O)N[C@H](C(=O)N[C@@H](CC(C)C)C(N)=O)C(C)C)C(C)C)[C@@H](C)O | 57 nM | 9 nM | 36 nM | 85% | Active | Active | Active |  |  | 
CC[C@H](C)[C@H](NC(=O)CNC(=O)[C@H](CC(=O)O)NC(=O)[C@H](CO)NC(=O)[C@@H](N)Cc1cnc[nH]1)C(=O)N[C@@H](Cc1ccc(C#Cc2ccccc2)cc1)C(=O)N[C@H](C(=O)N[C@@H](CC(=O)O)C(=O)N[C@@H](CO)C(=O)N[C@@H](Cc1ccc(O)cc1)C(=O)N[C@@H](CO)C(=O)N[C@@H](CCCNC(=N)N)C(=O)N[C@@H](Cc1ccc(O)cc1)C(=O)N[C@@H](CCCNC(=N)N)C(=O)N[C@@H](CCCCN)C(=O)N[C@@H](CCC(N)=O)C(=O)N[C@@H](CCSC)C(=O)N[C@@H](C)C(=O)N[C@H](C(=O)N[C@@H](CCCCN)C(=O)N[C@@H](CCCCN)C(=O)N[C@@H](Cc1ccc(O)cc1)C(=O)N[C@@H](CC(C)C)C(=O)N[C@@H](C)C(=O)N[C@@H](C)C(=O)N[C@H](C(=O)N[C@@H](CC(C)C)C(N)=O)C(C)C)C(C)C)[C@@H](C)O | 53 nM | 12 nM | 53 nM | 85% | Active | Active | Active | 44.7 nM |  | 
CC[C@H](C)[C@H](NC(=O)CNC(=O)[C@H](CC(=O)O)NC(=O)[C@H](CO)NC(=O)[C@@H](N)Cc1cnc[nH]1)C(=O)N[C@@H](Cc1ccc(-c2ccccc2)cc1)C(=O)N[C@H](C(=O)N[C@@H](CC(=O)O)C(=O)N[C@@H](CO)C(=O)N[C@@H](Cc1ccc(O)cc1)C(=O)N[C@@H](CO)C(=O)N[C@@H](CCCNC(=N)N)C(=O)N[C@@H](Cc1ccc(O)cc1)C(=O)N[C@@H](CCCNC(=N)N)C(=O)N[C@@H](CCCCN)C(=O)N[C@@H](CCC(N)=O)C(=O)N[C@@H](CCSC)C(=O)N[C@@H](C)C(=O)N[C@H](C(=O)N[C@@H](CCCCN)C(=O)N[C@@H](CCCCN)C(=O)N[C@@H](Cc1ccc(O)cc1)C(=O)N[C@@H](CC(C)C)C(=O)N[C@@H](C)C(=O)N[C@@H](C)C(=O)N[C@H](C(=O)N[C@@H](CC(C)C)C(N)=O)C(C)C)C(C)C)[C@@H](C)O |  |  |  |  |  |  |  |  | 14.1 nM | 22.9 nM
CC[C@H](C)[C@H](NC(=O)CNC(=O)[C@H](CC(=O)O)NC(=O)[C@H](CO)NC(=O)[C@@H](N)Cc1cnc[nH]1)C(=O)N[C@@H](Cc1ccccc1)C(=O)N[C@H](C(=O)N[C@@H](CC(=O)O)C(=O)N[C@@H](CO)C(=O)N[C@@H](Cc1ccc(O)cc1)C(=O)N[C@@H](CO)C(=O)N[C@@H](CCCNC(=N)N)C(=O)N[C@@H](Cc1ccc(O)cc1)C(=O)N[C@@H](CCCNC(=N)N)C(=O)N[C@@H](CCCCN)C(=O)N[C@@H](CCC(N)=O)C(=O)N[C@@H](CCSC)C(=O)N[C@@H](C)C(=O)N[C@H](C(=O)N[C@@H](CCCCN)C(=O)N[C@@H](CCCCN)C(=O)N[C@@H](Cc1ccc(O)cc1)C(=O)N[C@@H](CC(C)C)C(=O)N[C@@H](C)C(=O)N[C@@H](C)C(=O)N[C@H](C(=O)N[C@@H](CC(C)C)C(N)=O)C(C)C)C(C)C)[C@@H](C)O |  |  |  | 85% |  |  |  |  |  | 
